Like-named read-outs stand apart in the source and are kept apart here.
What was measured:
[1] = biological target: serotoninergic 5-HT2A receptor (Homo sapiens, UniProt P28223); experiment: Binding assay 5-HT2A (h), [3H]ketanserin, HEK-293 cells; parameters: expressed in transfected cells; host or cells: HEK-293 cells; settings: read-out: 5-HT2A
Procedure, shortened: (§1)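 Binding read by scintillation counting. Non-specific component defined by excess unlabelled ligand and removed from total counts. Compounds at 1×10^−6 M.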

[2] = biological target: T1, serotoninergic receptor 5-HT2C (Homo sapiens, UniProt P28335); experiment: Binding assay 5-HT2C (h), [3H]mesulergine, HEK-293 cells; settings: read-out: 5-HT2C [%]
T1 construct: expressed in transfected cells; host or cells: HEK-293 cells
T1 sequence (P28335 33-458): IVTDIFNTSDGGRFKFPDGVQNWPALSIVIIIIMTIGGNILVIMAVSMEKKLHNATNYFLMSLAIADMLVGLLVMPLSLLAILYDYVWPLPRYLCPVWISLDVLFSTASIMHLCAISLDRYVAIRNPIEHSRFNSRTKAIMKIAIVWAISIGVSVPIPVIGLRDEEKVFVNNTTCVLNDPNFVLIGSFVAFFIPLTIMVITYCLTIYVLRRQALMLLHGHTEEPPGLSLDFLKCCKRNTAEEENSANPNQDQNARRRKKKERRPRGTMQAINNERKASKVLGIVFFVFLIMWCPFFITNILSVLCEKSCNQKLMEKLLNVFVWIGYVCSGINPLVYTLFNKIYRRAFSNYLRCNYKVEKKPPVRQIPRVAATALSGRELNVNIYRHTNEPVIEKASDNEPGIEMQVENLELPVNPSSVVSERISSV
Procedure, shortened: as §1

[3] = biological target: T2, serotoninergic 5-HT1A receptor (Homo sapiens, UniProt P08908); experiment: Binding assay 5-HT1A (h), [3H]8-OH-DPAT, HEK-293 cells; parameters: expressed in transfected cells; host or cells: HEK-293 cells; settings: read-out: 5-HT1A
T2 sequence (P08908 1-422): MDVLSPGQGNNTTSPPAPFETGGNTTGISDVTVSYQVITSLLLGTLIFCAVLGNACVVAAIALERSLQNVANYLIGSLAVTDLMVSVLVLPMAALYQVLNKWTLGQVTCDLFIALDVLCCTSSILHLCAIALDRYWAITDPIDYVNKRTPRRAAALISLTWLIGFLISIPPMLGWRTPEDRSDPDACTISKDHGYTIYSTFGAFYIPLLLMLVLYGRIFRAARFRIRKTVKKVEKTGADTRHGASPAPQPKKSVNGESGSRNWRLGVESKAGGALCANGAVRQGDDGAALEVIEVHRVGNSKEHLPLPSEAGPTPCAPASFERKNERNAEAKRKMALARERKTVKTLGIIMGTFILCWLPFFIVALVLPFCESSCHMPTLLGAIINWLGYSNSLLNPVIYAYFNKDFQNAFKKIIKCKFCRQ
Procedure, shortened: as §1

hERG potassium channels = hERG potassium channels (Homo sapiens, UniProt Q12809); experiment: hERG potassium channel block, electrophysiology (IonWorks Quattro), CHO cells
Sequence of hERG potassium channels (Q12809 whole entry): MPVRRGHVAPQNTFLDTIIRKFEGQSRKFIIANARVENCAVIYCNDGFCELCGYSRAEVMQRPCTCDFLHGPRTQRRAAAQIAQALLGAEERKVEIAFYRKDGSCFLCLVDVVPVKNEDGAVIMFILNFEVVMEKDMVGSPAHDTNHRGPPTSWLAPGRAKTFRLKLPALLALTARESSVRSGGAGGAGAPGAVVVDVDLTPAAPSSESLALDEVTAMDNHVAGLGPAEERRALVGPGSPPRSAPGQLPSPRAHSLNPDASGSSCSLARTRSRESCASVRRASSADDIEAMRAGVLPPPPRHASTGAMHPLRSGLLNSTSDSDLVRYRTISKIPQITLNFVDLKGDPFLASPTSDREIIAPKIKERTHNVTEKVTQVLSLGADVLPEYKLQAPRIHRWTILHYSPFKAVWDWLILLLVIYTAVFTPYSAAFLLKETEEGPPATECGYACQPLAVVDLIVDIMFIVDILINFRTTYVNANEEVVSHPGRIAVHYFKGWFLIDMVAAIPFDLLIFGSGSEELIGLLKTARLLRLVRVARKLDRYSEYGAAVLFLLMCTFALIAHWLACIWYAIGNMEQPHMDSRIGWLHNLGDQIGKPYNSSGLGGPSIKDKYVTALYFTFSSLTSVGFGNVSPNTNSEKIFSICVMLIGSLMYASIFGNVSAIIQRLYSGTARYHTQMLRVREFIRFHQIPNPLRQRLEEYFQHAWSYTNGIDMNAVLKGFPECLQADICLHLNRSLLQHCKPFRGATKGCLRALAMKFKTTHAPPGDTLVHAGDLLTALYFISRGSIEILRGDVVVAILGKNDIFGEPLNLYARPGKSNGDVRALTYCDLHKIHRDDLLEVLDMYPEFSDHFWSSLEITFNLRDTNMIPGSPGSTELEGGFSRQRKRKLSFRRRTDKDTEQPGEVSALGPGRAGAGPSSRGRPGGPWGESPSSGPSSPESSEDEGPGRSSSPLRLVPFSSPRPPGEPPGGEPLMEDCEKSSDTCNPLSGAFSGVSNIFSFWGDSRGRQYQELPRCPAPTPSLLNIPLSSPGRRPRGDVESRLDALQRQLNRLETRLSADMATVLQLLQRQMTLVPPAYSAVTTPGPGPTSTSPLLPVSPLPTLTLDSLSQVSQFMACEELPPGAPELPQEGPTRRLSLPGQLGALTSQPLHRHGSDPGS

adrenergic α1A receptor = biological target: T3, adrenergic α1A receptor (Homo sapiens, UniProt P35348); experiment: Cellular functional assay, adrenergic α1A receptor (agonism/antagonism); type: cell-based; settings: for activation at 1 µM: agonist effect, percent of control specific agonist response, compounds tested at 1×10^−6M, read-out: α1A -ag [%]; for inhibition at 1 µM: read-out: α1A -antag. [%]
T3 sequence (P35348 1-466): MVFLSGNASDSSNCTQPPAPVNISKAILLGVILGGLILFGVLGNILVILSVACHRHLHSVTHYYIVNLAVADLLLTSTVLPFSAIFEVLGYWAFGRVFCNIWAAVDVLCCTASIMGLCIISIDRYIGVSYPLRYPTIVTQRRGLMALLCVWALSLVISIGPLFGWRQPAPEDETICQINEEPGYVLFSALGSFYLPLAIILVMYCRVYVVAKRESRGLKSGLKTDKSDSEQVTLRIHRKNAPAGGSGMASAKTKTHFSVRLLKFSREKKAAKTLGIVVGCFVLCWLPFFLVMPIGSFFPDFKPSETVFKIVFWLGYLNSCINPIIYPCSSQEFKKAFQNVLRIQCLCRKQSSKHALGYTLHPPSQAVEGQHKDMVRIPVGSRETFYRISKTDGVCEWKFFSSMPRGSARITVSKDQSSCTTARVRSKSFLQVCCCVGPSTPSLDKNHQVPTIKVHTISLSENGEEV
Procedure: […]. The compounds were tested at the concentration of 1×10^−6M.
Conditions and methodology (by reference to the literature) of cellular functional assays are given in Table 13 and the tests results for representative compounds are given in Table 14 (dopaminergic receptor D2), in Table 15 (dopaminergic receptor D3), in Table 16 (serotoninergic receptor 5-HT1A), in Table 17 (serotoninergic receptor 5-HT2A), in Table 18 (serotoninergic receptor 5-HT6), in Table 19 (serotoninergic receptor 5-HT7), in Table 20 (adrenergic α1 receptor), in Table 21 (adrenergic α2C receptor), in Table 22 (histaminergic H1 receptor) and in Table 23 (serotoninergic 5-HT2C receptor). In the Tables ag refers to agonism, and antag to antagonism).

[4] = biological target: T2, serotoninergic 5-HT1A receptor; experiment: Cellular functional assay, serotoninergic 5-HT1A receptor (agonism/antagonism); type: cell-based; settings: for inhibition at 1 µM: CHO, read-out: 5-HT1A-antag. [%]; for activation at 1 µM: agonist effect, percent of control specific agonist response (100 nM 8-OH-DPAT for control), 1×10^−6 M, 5-HT1A (h), CHO cells, read-out: 5-HT1A-ag [%]
Procedure: The compounds were tested at the concentration of 1×10^−6M.
In the Tables ag refers to agonism, and antag to antagonism).

[5] = % block of hERG current, cloned hERG channels in CHO cells, IonWorks Quattro

Sequence of serotoninergic 5-HT2A receptor (P28223 whole entry): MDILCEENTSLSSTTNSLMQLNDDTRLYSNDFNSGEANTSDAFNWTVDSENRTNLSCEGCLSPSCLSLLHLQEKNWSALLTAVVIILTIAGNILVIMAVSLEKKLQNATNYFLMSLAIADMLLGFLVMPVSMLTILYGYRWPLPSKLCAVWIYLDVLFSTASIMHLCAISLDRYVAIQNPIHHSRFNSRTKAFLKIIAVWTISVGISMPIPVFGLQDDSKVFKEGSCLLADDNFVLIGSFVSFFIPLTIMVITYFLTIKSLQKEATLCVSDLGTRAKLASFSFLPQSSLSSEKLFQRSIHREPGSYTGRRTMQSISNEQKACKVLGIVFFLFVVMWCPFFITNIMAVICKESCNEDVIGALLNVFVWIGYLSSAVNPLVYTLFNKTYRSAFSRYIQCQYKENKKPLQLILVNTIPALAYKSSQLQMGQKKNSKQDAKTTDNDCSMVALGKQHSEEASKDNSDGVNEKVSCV

Row | Compound | inhibition at 1 µM [1] [%] | inhibition at 1 µM [2] [%] | inhibition at 1 µM [3] [%] | hERG [%] (hERG potassium channels; [5]) | activation at 1 µM (adrenergic α1A receptor) [%] | inhibition at 1 µM (adrenergic α1A receptor) [%] | hERG [%] (hERG potassium channels) | inhibition at 1 µM [4] [%] | activation at 1 µM [4] [%]
1 | O=S(=O)(NCCCCN1CCN(c2nsc3ccccc23)CC1)c1cccc2ccccc12 [Compound 1, N-(4-(4-(1,2-Benzothiazol-3-yl)piperazin-1-yl)butyl)naphthalene-1-sulphonamide] | 99 | 80 | 96 | 16 | 0 | 100 | – | – | –
2 | Cc1cccc(S(=O)(=O)NCCCCN2CCN(c3nsc4ccccc34)CC2)c1 [Compound 3, N-(4-(4-(1,2-Benzothiazol-3-yl)piperazin-1-yl)butyl)-3-methylbenzenesulphonamide] | 100 | 77 | 98 | – | – | – | 17 | – | –
3 | O=S(=O)(NCCCCN1CCN(c2noc3ccccc23)CC1)c1ccc2ccccc2c1 [Compound 14, N-(4-(4-(1,2-Benzoxazol-3-yl)piperazin-1-yl)butyl)naphthalene-2-sulphonamide] | 100 | 51 | 88 | −1.4 | 0 | 100 | – | – | –
4 | O=S(=O)(NCCCCN1CCN(c2cccc3[nH]ccc23)CC1)c1cc2ccccc2s1 [Compound 33, N-{4-[4-(1H-Indol-4-yl)piperazin-1-yl]butyl}-1-benzothiophene-2-sulphonamide] | 95 | 27 | 100 | – | 0 | 100 | – | 24 | 63
5 | Cc1c(S(=O)(=O)NCCCCN2CCN(c3nsc4ccccc34)CC2)sc2ccc(F)cc12 [Compound 65, N-[4-[4-(1,2-Benzothiazol-3-yl)piperazin-1-yl]butyl]-5-fluoro-3-methylbenzothiophene-2-sulphonamide] | 101 | 95 | 100 | – | 0 | 98 | – | 35 | 9
6 | Cc1c(S(=O)(=O)NCCCCN2CCN(c3noc4ccccc34)CC2)sc2ccc(F)cc12 [Compound 81, N-[4-[4-(1,2-Benzoxazol-3-yl)piperazin-1-yl]butyl]-5-fluoro-3-methylbenzothiophene-2-sulphonamide] | 101 | 50 | 92 | – | 1 | 100 | – | 22 | 5
7 | Cc1c(S(=O)(=O)NCCCCN2CCC(c3noc4cc(F)ccc34)CC2)sc2ccc(F)cc12 [Compound 101, 5-Fluoro-N-[4-[4-(6-fluoro-1,2-benzoxazol-3-yl)piperidin-1-yl]butyl]-3-methylbenzothiophene-2-sulphonamide] | 100 | 80 | 82 | 14 | 0 | 100 | – | – | –
8 | Cc1c(S(=O)(=O)NCCCN2CCC(c3noc4cc(F)ccc34)CC2)sc2ccc(F)cc12 [Compound 102, 5-Fluoro-N-[3-[4-(6-fluoro-1,2-benzoxazol-3-yl)piperidin-1-yl]propyl]-3-methylbenzothiophene-2-sulphonamide] | 101 | 76 | 92 | – | 0 | 100 | – | 35 | 1
9 | O=S(=O)(NCCCCN1CCN(c2nsc3ccccc23)CC1)c1cc2ccccc2s1 [Compound 239, N-[4-[4-(1,2-Benzothiazol-3-yl)piperazin-1-yl]butyl]benzothiophene-2-sulphonamide] | 101 | 88 | 98 | – | -1 | 100 | – | 58 | 7
10 | O=S(=O)(NCCCCN1CCN(c2nsc3ccccc23)CC1)c1csc2ccccc12 [Compound 240, N-[4-[4-(1,2-Benzothiazol-3-yl)piperazin-1-yl]butyl]benzothiophene-3-sulphonamide] | 101 | 78 | 98 | – | 0 | 100 | – | 50 | 9
11 | O=S(=O)(NCCCCN1CCN(c2nsc3ccccc23)CC1)c1cc2ccc(Cl)cc2s1 [Compound 241, N-[4-[4-(1,2-Benzothiazol-3-yl)piperazin-1-yl]butyl]-6-chlorobenzothiophene-2-sulphonamide] | 101 | 96 | 98 | – | 0 | 95 | – | 42 | 5
12 | O=S(=O)(NCCCN1CCC(c2noc3cc(F)ccc23)CC1)c1ccc(F)c(Cl)c1 [Compound 331, 3-Chloro-4-fluoro-N-[3-[4-(6-fluoro-1,2-benzoxazol-3-yl)piperidin-1-yl]propyl]benzenesulphonamide] | 102 | 82 | 82 | 32 | 1 | 100 | – | – | –
13 | O=c1[nH]c2cccc(N3CCN(CCCNS(=O)(=O)c4cccc5ccccc45)CC3)c2[nH]1 [Compound 423, N-[3-[4-(2-oxo-1,3-dihydrobenzimidazol-4-yl)piperazin-1-yl]propyl]naphthalene-1-sulphonamide] | 30 | 9 | 99 | – | 16 | 70 | – | 73 | 35
14 | O=c1[nH]c2cccc(N3CCN(CCCNS(=O)(=O)c4ccc5ccccc5c4)CC3)c2[nH]1 [Compound 424, N-[3-[4-(2-oxo-1,3-dihydrobenzimidazol-4-yl)piperazin-1-yl]propyl]naphthalene-2-sulphonamide] | 66 | 8 | 99 | – | 39 | 76 | – | 75 | 23

Source: patent US8822517B2, “Arylosulfonamides for the treatment of CNS diseases” (Adamed SP. Z O.O., priority 2010, dated 2014)
